Data on three compounds can be found in publication PMC4498294, “Tetrahydroisoquinolines affect the whole-cell phenotype of Mycobacterium tuberculosis by inhibiting the ATP-dependent MurE ligase” (Journal of Antimicrobial Chemotherapy, 2015).

Values after ≈ are worked out from the molar mass of the structure shown. Like-named read-outs stand apart in the source and are kept apart here.

Series [1] relates to M. tuberculosis H37Rv. The following applies: virulent M. tuberculosis H37Rv strain; cited from earlier work.
The target in series [2] is P-glycoprotein (Homo sapiens, UniProt P08183). The experiment in a line: in vitro. The following applies: dog, MDCK-MDR1. As for the experimental part:
All dose solutions contained 10 μM propranolol as an internal standard. MDCK cells carrying the MDR-1 gene were used to seed filters that were exposed to a fixed volume of the donor solution containing the compound of interest. The compound's ability to traverse the monolayer and appear in the receiver compartment was measured over a 30 min period. Bidirectional permeability measurements were derived by examining the transfer of compound from both the apical to the basolateral compartment and vice versa. Sample analysis was conducted using LC-MS/MS with the detection settings optimized for each test compound.

Series [3] concerns the target T1, CYP 2C9 (Homo sapiens, UniProt P11712).
T1 construct: purchased; host or cells: baculosomes (insect-cell microsomes; own knowledge)
The experiment in a line: CYP450 inhibition assay, CYP 2C9. The following applies: CYP baculosomes with recombinant human CYP2C9, probe fluorogenic substrate (not named); human recombinant enzymes; read-out: Mean % inhibtion CYP 2C9. Further details: dose or concentration left out as unconfirmed. The format is in vitro ADME. As for the experimental part:
(§1) The compounds originally dissolved in DMSO were added to PBS to give a resulting concentration of […]. CYP baculosomes containing cDNA for a single human P450 isozyme, the fluorogenic substrate and the NADPH were added to the test solution. The reaction was incubated at 37°C for at least 1 h. Fluorogenic substrates metabolized by CYP enzymes result in highly fluorescent products in aqueous solution. The inhibition of CYP prevents this metabolism, which corresponds to a decrease in the fluorescence signal. The fluorescence was measured on a plate reader.

The target in series [4] is T2, CYP 3A4 (Homo sapiens, UniProt P08684).
T2 construct: purchased; host or cells: baculosomes (insect-cell microsomes; own knowledge)
T2 sequence (P08684 whole entry): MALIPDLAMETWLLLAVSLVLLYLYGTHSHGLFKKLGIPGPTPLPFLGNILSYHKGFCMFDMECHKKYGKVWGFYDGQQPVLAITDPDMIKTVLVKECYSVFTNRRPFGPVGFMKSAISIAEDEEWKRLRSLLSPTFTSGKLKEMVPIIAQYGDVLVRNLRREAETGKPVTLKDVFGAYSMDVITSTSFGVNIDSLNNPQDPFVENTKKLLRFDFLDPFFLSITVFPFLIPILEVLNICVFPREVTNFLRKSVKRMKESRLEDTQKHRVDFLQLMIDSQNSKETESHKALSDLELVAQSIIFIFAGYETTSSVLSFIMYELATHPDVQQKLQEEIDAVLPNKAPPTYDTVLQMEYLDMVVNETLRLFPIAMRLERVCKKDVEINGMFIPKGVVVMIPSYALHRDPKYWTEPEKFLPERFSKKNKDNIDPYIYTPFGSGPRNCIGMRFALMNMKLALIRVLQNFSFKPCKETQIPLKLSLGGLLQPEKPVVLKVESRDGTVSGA
The series is described as follows: CYP450 inhibition assay, CYP 3A4. The following applies: CYP baculosomes with recombinant human CYP3A4, probe fluorogenic substrate (not named); human recombinant enzymes; read-out: Mean % inhibtion CYP 3A4. The series is classed as in vitro ADME. Also on record: dose or concentration left out as unconfirmed. On the procedure:
as §1

A short description of series [5]: Aqueous kinetic solubility. The following applies: aqueous with cosolvent or surfactant or cyclodextrin, kinetic from dmso stock, 5% DMSO in PBS, 21°C. The series is classed as physicochemical. As for the experimental part: The compounds were equilibrated in 5% DMSO in PBS at 21°C for 24 h. The samples were then centrifuged at 15000 g for 10 min. A 100 μL sample of the supernatant was carefully collected and the soluble amount of compound quantified using LC-MS/MS. A standard curve for each compound was prepared in 100% acetonitrile. Solubility results are reported as low (<0.1 mg/mL), medium (0.1–0.5 mg/mL) and high (>0.5 mg/mL).

The test system of series [6] is MDR-1. The series is described as follows: MDCK cell permeability assay. The format is in vitro ADME, canine. The following applies: dog, MDCK-MDR1, MDCK MDR-1 monolayer, 10 μM, 30 min; for Papp A→B at 30 min, 10 μM: apical to basolateral; for Papp B→A at 30 min, 10 μM: basolateral to apical.
A short description of series [7]: MDCK cell permeability assay. The following applies: dog, MDCK-MDR1; MDCK MDR-1 monolayer, class. The series is classed as in vitro ADME, canine.
Series [8] concerns MDCK cells carrying the MDR-1 gene. The experiment in a line: MDCK cell permeability assay. The series is classed as in vitro ADME, canine. The following applies: MDCK MDR-1 monolayer, 10 μM, 30 min, apical to basolateral.
The nature of series [9]: Human hepatocyte stability assay. The following applies: for hepatic extraction ratio: hepatocyte stability assay; for half-life / hepatocyte CLint: human, hepatocytes; for half-life: read-out: t1/2 hepatocytes; for hepatocyte CLint: in vivo hepatic intrinsic clearance prediction values. The series is classed as in vitro ADME. Further details: half-life / hepatocyte CLint: dose or concentration left out as unconfirmed. As for the experimental part:
The compounds originally dissolved in DMSO were added to PBS to give a resulting concentration of 1 mM. Hepatocytes were then added to the solution and the reaction was incubated at 37°C for up to 120 min. Acetonitrile with internal standard was added to stop the incubation. The samples were centrifuged and the supernatant was then analysed by HPLC-MS/MS to detect the parent compound.

The target in series [10] is MurE (Rv2158c) protein of M. tuberculosis H37Rv (Mycobacterium tuberculosis, UniProt P9WJL3). The experiment in a line: Mtb-MurE HPLC inhibition assay. The series is classed as biochemical. The following applies: HPLC assay, 37°C 30 min.
MurE (Rv2158c) protein of M. tuberculosis H37Rv, sequence (P9WJL3 whole entry, looked up): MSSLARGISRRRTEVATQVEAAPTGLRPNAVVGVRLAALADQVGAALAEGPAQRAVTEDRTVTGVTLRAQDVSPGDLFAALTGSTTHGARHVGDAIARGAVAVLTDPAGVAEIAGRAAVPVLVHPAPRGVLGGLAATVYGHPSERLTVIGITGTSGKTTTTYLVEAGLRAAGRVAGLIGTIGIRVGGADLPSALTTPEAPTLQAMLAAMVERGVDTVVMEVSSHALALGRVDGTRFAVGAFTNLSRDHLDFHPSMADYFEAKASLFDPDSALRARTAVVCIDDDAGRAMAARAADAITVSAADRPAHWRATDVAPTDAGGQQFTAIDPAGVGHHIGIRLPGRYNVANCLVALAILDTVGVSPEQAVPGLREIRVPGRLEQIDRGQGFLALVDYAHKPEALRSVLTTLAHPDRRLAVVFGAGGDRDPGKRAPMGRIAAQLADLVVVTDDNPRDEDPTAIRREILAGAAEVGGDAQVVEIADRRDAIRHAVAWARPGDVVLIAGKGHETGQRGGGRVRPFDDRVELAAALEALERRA
Series [11] has as its target T3, CYP 2D6 (Homo sapiens, UniProt P10635).
T3 construct: purchased; host or cells: baculosomes (insect-cell microsomes; own knowledge)
The experiment in a line: CYP450 inhibition assay, CYP 2D6. The format is in vitro ADME. Further details: dose or concentration left out as unconfirmed. The following applies: CYP baculosomes with recombinant human CYP2D6, probe fluorogenic substrate (not named); human recombinant enzymes; read-out: Mean % inhibtion CYP 2D6. As for the experimental part:
as §1

For series [12], the system named is murine macrophage cell line RAW264.7. The experiment in a line: Eukaryotic cell toxicity assay, RAW264.7. The format is cell-based. The following applies: Mus musculus, read-out: GIC50 RAW264.7.
Series [13] deals with M. bovis BCG Pasteur. The experiment in a line: microbe, parasite or virus in culture. The format is cell-based. The following applies: Mycobacterium tuberculosis variant bovis BCG, BCG.
Series [14] can be described thus: Human microsome stability assay. The format is in vitro ADME. Also on record: half-life: dose or concentration left out as unconfirmed. The following applies: for half-life: human, liver microsomes, read-out: t1/2 microsomes. On the procedure: Microsomes and NADPH were then added to the solution and the reaction was incubated at 37°C for up to 60 min. Acetonitrile (300 μL) with internal standard was added to stop the incubation. The samples were centrifuged and the supernatant was then analysed by HPLC-MS/MS to detect the parent compound.

In series [15] the target is T4, CYP 1A2 (Homo sapiens, UniProt P05177).
T4 construct: purchased; host or cells: baculosomes (insect-cell microsomes; own knowledge)
T4 sequence (P05177 1-516): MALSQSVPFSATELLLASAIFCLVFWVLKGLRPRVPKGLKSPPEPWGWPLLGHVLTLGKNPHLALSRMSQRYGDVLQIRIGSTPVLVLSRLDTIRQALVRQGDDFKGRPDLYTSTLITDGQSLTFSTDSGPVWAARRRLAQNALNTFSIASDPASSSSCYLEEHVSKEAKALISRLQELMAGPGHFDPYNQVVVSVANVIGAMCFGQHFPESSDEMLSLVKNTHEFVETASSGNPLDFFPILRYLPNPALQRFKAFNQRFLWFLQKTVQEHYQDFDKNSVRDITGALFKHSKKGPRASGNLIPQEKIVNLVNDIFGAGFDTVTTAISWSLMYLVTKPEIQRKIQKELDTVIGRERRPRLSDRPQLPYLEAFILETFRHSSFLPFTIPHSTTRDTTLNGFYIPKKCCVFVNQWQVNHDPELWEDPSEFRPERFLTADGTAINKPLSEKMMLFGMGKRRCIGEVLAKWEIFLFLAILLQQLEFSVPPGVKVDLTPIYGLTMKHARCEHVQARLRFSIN
The series is described as follows: CYP450 inhibition assay, CYP 1A2. The format is in vitro ADME. Also on record: dose or concentration left out as unconfirmed. The following applies: CYP baculosomes with recombinant human CYP1A2, probe fluorogenic substrate (not named); human recombinant enzymes; read-out: Mean % inhibtion CYP 1A2. As for the experimental part: as §1

The target of series [16] is T5, CYP 2C19 (Homo sapiens, UniProt P33261).
T5 construct: purchased; host or cells: baculosomes (insect-cell microsomes; own knowledge)
T5 sequence (P33261 whole entry): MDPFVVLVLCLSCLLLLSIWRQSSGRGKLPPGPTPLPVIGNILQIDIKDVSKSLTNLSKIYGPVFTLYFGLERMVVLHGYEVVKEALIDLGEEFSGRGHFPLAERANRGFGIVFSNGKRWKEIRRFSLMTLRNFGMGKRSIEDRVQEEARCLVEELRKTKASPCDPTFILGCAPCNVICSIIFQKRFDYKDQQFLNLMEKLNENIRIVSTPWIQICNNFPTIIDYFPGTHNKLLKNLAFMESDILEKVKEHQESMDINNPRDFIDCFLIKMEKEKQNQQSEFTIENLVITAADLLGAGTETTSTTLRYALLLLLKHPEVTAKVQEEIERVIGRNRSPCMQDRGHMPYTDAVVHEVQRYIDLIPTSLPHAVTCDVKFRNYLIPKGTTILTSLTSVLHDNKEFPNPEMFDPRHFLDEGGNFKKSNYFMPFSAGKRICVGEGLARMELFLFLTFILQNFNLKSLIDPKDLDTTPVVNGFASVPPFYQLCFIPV
The series is described as follows: CYP450 inhibition assay, CYP 2C19. The format is in vitro ADME. Also on record: dose or concentration left out as unconfirmed. The following applies: CYP baculosomes with recombinant human CYP2C19, probe fluorogenic substrate (not named); human recombinant enzymes; read-out: Mean % inhibtion CYP 2C19. As for the experimental part:
as §1

The mark [17] stands for this setting: RAW264.7, value in square brackets.
Setting [18] is: murine macrophage cell line RAW264.7.
Setting [19] is: 336 h, read-out: MIC M. bovis BCG, SPOTi, 2 weeks at 37°C.
The mark [20] stands for this setting: read-out: MIC M. bovis BCG, SPOTi, value in square brackets.

T1 sequence (P11712 whole entry): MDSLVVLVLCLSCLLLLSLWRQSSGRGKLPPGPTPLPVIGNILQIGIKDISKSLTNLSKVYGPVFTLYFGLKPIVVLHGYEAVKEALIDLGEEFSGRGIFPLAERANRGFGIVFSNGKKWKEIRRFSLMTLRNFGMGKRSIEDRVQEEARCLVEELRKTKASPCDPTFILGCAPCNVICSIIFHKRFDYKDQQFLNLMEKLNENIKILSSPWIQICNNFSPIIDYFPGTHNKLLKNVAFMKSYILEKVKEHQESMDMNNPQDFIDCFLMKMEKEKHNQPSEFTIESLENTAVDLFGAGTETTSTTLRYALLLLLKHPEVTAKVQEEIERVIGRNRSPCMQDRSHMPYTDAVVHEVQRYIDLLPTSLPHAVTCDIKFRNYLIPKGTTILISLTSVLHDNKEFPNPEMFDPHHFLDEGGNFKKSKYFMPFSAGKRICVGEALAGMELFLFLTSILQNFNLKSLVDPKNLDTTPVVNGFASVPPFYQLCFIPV
P-glycoprotein, sequence (P08183 whole entry): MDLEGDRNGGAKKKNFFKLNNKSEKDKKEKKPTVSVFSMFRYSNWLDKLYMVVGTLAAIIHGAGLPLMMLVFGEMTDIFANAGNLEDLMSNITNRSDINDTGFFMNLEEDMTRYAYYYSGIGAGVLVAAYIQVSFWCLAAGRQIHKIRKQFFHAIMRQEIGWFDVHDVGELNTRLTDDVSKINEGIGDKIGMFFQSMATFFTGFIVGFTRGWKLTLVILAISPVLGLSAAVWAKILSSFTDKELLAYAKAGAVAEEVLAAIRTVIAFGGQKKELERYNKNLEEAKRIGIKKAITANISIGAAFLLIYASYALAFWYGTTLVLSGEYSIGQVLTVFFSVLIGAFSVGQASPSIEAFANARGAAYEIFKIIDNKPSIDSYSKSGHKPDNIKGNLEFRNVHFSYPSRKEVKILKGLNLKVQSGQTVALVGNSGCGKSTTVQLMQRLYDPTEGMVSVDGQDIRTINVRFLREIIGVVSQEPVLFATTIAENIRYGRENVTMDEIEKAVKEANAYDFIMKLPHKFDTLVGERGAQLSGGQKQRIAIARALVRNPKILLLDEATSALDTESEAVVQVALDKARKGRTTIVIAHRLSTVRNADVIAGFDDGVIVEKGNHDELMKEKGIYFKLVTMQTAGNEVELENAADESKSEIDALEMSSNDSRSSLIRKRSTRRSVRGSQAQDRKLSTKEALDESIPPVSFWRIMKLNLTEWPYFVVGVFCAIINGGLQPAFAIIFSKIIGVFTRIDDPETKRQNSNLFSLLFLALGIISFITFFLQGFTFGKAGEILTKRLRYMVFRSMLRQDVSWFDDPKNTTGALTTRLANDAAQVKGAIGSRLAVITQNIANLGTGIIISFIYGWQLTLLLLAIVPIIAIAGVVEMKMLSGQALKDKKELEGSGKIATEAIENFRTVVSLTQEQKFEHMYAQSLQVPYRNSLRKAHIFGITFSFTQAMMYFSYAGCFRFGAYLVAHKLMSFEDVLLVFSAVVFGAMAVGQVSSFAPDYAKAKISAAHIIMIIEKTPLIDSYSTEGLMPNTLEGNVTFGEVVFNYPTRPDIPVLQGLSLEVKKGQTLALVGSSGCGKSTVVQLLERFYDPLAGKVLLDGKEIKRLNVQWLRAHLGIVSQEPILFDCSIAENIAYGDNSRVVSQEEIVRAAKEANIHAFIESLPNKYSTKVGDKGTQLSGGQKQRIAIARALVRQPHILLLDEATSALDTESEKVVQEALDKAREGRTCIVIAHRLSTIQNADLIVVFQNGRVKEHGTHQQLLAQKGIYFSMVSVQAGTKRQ
T3 sequence (P10635 whole entry): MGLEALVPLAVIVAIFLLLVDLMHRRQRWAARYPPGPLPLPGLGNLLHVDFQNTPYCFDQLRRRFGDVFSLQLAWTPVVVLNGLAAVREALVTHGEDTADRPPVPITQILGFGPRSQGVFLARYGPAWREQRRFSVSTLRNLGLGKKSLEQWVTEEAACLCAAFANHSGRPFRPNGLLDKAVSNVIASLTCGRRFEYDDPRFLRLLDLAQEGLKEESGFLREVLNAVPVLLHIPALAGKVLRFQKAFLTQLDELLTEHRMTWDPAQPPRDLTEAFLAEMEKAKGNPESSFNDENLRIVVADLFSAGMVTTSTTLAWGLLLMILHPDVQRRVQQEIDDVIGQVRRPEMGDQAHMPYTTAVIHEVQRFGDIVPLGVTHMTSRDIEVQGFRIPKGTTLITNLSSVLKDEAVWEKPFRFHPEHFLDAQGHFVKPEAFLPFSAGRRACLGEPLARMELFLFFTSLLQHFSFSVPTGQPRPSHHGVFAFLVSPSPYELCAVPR

Take `COc1cc2c(cc1OC)-c1c3c(cc4c1[C@H](C2)NCC4)OCO3` [(-)-Nordicentrine]: the “MIC M. tuberculosis H37Rv” value in series [1] is 12.5 µg/mL (≈ 38.4 µM).
For the compound `Oc1ccc(Br)c2c1C(Cc1ccc3c(c1)OCO3)NCC2` (centres unmarked) [Compound 28], the efflux ratio in series [2] worked out at 11.3. The inhibition in series [3] was 81.8%; in series [4] it was 93.2%; in [11], 92.9%; in series [15], 81.4%; in [16], 97.5%. In addition, the kinetic solubility at 24 h in [5] amounted to 800 µg/mL (≈ 2210 µM). Moreover, the solubility at 24 h in [5] (read-out: aqueous solubility (class)) is > 500 µg/mL. Also, the Papp A→B at 30 min, 10 μM was 1.7 ×10⁻⁶ cm/s in series [6] and < 2 ×10⁻⁶ cm/s in series [7]. The compound also yielded a Papp B→A at 30 min, 10 μM in series [6] of 18.8 ×10⁻⁶ cm/s. Besides, the “Papp A-B” value in series [8] is reported as 1.7 cm/sec, x10-6. The hepatic extraction ratio in [9] is recorded as > 0.6. In addition, the t1/2 hepatocytes in series [9] (human hepatocytes) was determined as 23.2 min. For the same compound, the half-life in [9] (human hepatocytes) stood at 23.2 min; in [14], 9.81 min. Further, in [9], the hepatocyte CLint was 17.4 µL/min/1e6 cells. Besides, the figures for the IC50 in series [10], in series [12] (setting [17]) and in [12] (setting [18]) were < 111 µM, 130 µM and 47 µg/mL, respectively. Besides, the MIC in series [13] (setting [19]) is 20 µg/mL; in series [13] (setting [20]), 55 µM. For the same compound, the t1/2 microsomes in series [14] (human liver microsomes) is 9.8 min. For the same compound, the “Mean % microsome turnover” value is -5.33e-15% in [14] (human liver microsomes, 0 min); 64.61% in series [14] (human liver microsomes, 15 min); 88.00% in [14] (human liver microsomes, 30 min); 92.24% in [14] (human liver microsomes, 60 min). Moreover, the Mean compound remaining in series [14] (human liver microsomes, 0 min) is given as 100.00; in series [14] (human liver microsomes, 15 min), 35.39; in [14] (human liver microsomes, 30 min) it was 12.00; in [14] (human liver microsomes, 60 min), 7.76. In addition, the Microsomal stability in series [14] (human liver microsomes, 0 min) worked out at 4.60; in series [14] (human liver microsomes, 15 min) it was 3.57; in series [14] (human liver microsomes, 30 min), 2.48; in series [14] (human liver microsomes, 60 min) it was 2.03.
For `Oc1ccc(Br)c2c1C(c1cccc3c1OCO3)NCC2` (centres unmarked) [Compound 35], in series [2], the efflux ratio is 11.9. In addition, the inhibition in [3] came out at 44.9%; in [4], 80%; in [11], 80.7%; in [15] it was 36.7%; in series [16], 98.2%. The solubility (kinetic) at 24 h in [5] is 300 µg/mL (≈ 862 µM). The figures for the Papp A→B at 30 min, 10 μM in [6] and in series [7] were 3.2 ×10⁻⁶ cm/s and 2 to 20 ×10⁻⁶ cm/s, respectively. This compound also registered a Papp B→A at 30 min, 10 μM in series [6] of 38 ×10⁻⁶ cm/s. In series [8], the “Papp A-B” value was 3.2 cm/sec, x10-6. In addition, the hepatic extraction ratio in series [9] is reported as > 0.6. The half-life in [9] (human hepatocytes) came to 78.6 min; in [14] it was 110 min. For the same compound, in [9], the hepatocyte CLint was 12.6 µL/min/1e6 cells. The values for the IC50 in series [10], in series [12] (setting [17]) and in series [12] (setting [18]) were < 111 µM, 348 µM and 121 µg/mL, respectively. Besides, the MIC in series [13] (setting [19]) turned out to be 60 µg/mL; in series [13] (setting [20]) it was 172 µM. Besides, the “Mean % microsome turnover” value in [14] (human liver microsomes, 0 min) is on record as -5.55e-15%; in series [14] (human liver microsomes, 15 min), 3.85%; in series [14] (human liver microsomes, 30 min) it was 14.54%; in series [14] (human liver microsomes, 60 min), 30.44%. Moreover, the Mean compound remaining was determined as 100.00 in [14] (human liver microsomes, 0 min); 96.15 in [14] (human liver microsomes, 15 min); 85.46 in [14] (human liver microsomes, 30 min); 69.56 in series [14] (human liver microsomes, 60 min). For the same compound, the Microsomal stability was determined as 4.60 in series [14] (human liver microsomes, 0 min); 4.57 in [14] (human liver microsomes, 15 min); 4.45 in series [14] (human liver microsomes, 30 min); 4.24 in series [14] (human liver microsomes, 60 min).
